In brackets after ≈: the same amount, converted by molar mass. Activity calls are given as the source filed them. No cut-off for these calls is given here.
Tests used:
KB = assay: Cytotoxicity against human KB cells by MTT assay; assay type: functional, cell-based
P388 = assay: In vivo antitumor activity against mouse P388 cells at 75 mg/kg, ip; assay type: functional, organism-based; design: dose 75 mg/kg

CC(C)=CCC/C(C)=C/Cc1c(O)cc(O)c2oc3cc(O)c(CC=C(C)C)c(O)c3c(=O)c12 [CRATOXYARBORENONE A]
EC50 (KB): 4.3 µg/mL (≈ 9.26 µM)

COc1cc(OC)c2oc3cc(O)c(CC=C(C)C)c(O)c3c(=O)c2c1CC=C(C)C [CRATOXYARBORENONE C]
EC50 (KB): 1.5 µg/mL (≈ 3.53 µM) | Activity (P388): inactive

C=C(C)C1Cc2c(cc3oc4c(O)c(O)c(O)c(CC=C(C)C)c4c(=O)c3c2O)O1 (stereo not given) [CRATOXYARBORENONE D]
EC50 (KB): 1.7 µg/mL (≈ 4.14 µM)

COc1c(O)cc2c(=O)c3c(O)cc(O)c(CC=C(C)C)c3oc2c1CC=C(C)C [CRATOXYARBORENONE E]
EC50 (KB): 4.3 µg/mL (≈ 10.5 µM)

COc1ccc(O)c2c(=O)c3ccc(O)cc3oc12 [CRATOXYARBORENONE F]
EC50 (KB): 4.1 µg/mL (≈ 15.9 µM)

COc1cc2c(c(O)c1C(CC(C)CCC=C(C)C)c1c(OC/C=C(\C)CCC=C(C)C)cc(O)c(C(=O)c3ccccc3)c1O)C(=O)c1c(O)cc(C)cc1C2=O (stereo not given)
Activity (KB): inactive

COc1cc2c(c(O)c1C(CC(C)C)c1c(OC/C=C(\C)CCC=C(C)C)cc(O)c(C(=O)c3ccccc3)c1O)C(=O)c1c(O)cc(C)cc1C2=O (stereo not given)
Activity (KB): inactive

CC(C)=CCc1c(O)cc2oc3c(O)cc(O)c(CC=C(C)C)c3c(=O)c2c1O [CRATOXYARBORENONE B]
EC50 (KB): 1 µg/mL (≈ 2.52 µM)

COc1cc2cc3c(c(O)c2c2c1C=CC(C)(C)O2)C(=O)CC(C)(O)C3 (stereo not given) [VISMIONE B]
EC50 (KB): 1.3 µg/mL (≈ 3.67 µM)

From ChEMBL document CHEMBL1159331, “Cytotoxic prenylated xanthones and the unusual compounds anthraquinobenzophenones from Cratoxylum sumatranum” (J Nat Prod, 2002)
